Read-outs that look alike come from different tables or passages of the source.

For experiment [1], the system named is A549 Human lung carcinoma cells. Kind of experiment: A549 Human Lung Cell Assay (transfected cells, dexamethasone challenge, luciferase read-out). Conditions: test compound 10 min then dexamethasone challenge, 24 h, Luc-assay, read-out: A 549 IC50. Type of experiment: cell-based. Here is the method: A549Human Lung Cell Assay
A549Human lung carcinoma cells were grown in F-12K Nutrient Mixture containing 10% (v/v) fetal bovine serum (FBS; Invitrogen), 2 mM glutamine and 0.15% sodium dicarbonate (Invitrogen).
A549 cells were split 1 to 3 in 175 cm tissue culture flask. The cells were incubated at 37° C. in CO2 incubator until the cells were 95% confluent (typically 24-30 hours).
The following solutions were prepared in sterile tubes: (a) Solution A 1.5 μg/ml of DNA in 8.5 ml OPTI-MEM I Reduced Serum Medium. (GIBCO cat# 31985) and (b) Solution B: 6 μl/ml of DMRIE-C Reagent into […] OPTI-MEM I. The two solutions were combined and mixed gently, then incubated at room temperature for 40 minutes.
The A549 cells prepared above were washed with […] of OPTI-MEM I. The medium was removed and 17 ml of the lipid-DNA complex solution was overlayed onto cells. The cells ere then incubated for 16 h at 37° C. in CO2 incubator. The DNA-containing medium was removed and 30 ml of growth medium was added. (5% Charcoal treated FBS) After 5-6 h, the cells were seeded in a 96 well plate and the cells incubated overnight at 37° C. in CO2 incubator.
To each well was then added 5 μl of test compounds and the cells incubated at 37° C. for 10 min. 5 μL of dexamathasone (CAS [50-02-2]), was then added to each well for challenger and the cells incubated at 37° C. in CO2 incubator for 24 h. 100 μl of Luc-assay buffer was then added into each cell well and the cells incubated for 30 min at room temperature. A 150 μL sample from each well was then transferred into a DYNEX Microlitel plate and read on Top-counter.
(§1) Representative compounds of the present invention were tested according to the procedures described in Examples 45 and 46 above, with results as listed in Table 2 below.

The subject of experiment [2] is T47D human breast cancer cells. The experiment is described as follows: T47D Human Breast Cancer Cells Assay (alkaline phosphatase, luminescence). It counts as cell-based. The method, then: T47D Human Breast Cancer Cells Assay
T47D human breast cancer cells were grown in RPMI medium without phenol red (Invitrogen) containing 10% (v/v) heat-inactivated fetal bovine serum (FBS; Hyclone), 1% (v/v) penicillin-streptomycin (Invitrogen), 1% (w/v) glutamine (Invitrogen), and […] insulin (Sigma). Incubation conditions were 37° C. in a humidified 5% (v/v) carbon dioxide environment.
The cells were plated in 96-well tissue culture plates at 10,000 cells per well in assay medium [RPMI medium without phenol red (Invitrogen) containing 5% (v/v) charcoal-treated FBS (Hyclone) and 1% (v/v) penicillin-streptomycin (Invitrogen)]. Two days later, the medium was decanted and test compound or control were added at a final concentration of 0.1% (v/v) dimethyl sulfoxide in fresh assay medium. Twenty-four hours later, an alkaline phosphatase assay was performed using a SEAP kit (BD Biosciences Clontech, Palo Alto, Calif.). Briefly, the medium was decanted and the cells were fixed for 30 minutes at room temperature with 5% (v/v) formalin (Sigma). The cells were washed once with room temperature Hank's buffered saline solution (Invitrogen). Equal volumes (0.05 mL) of 1× Dilution Buffer, Assay Buffer and 1:20 substrate/enhancer mixture were then added. After 1 hour incubation at room temperature in the dark, the lysate was transferred to a white 96-well plate (Dynex) and luminescence was read using a LuminoSkan Ascent (Thermo Electron, Woburn, Mass.).
as §1

[3] abbreviates: Homo sapiens, T47D, 24 h, read-out: T47D IC50 (nM), T47D cells, 24 h with test compound, alkaline phosphatase assay (SEAP kit).
Where [4] appears, read: read-out: T47D IC50, T47D cells, 24 h with test compound, alkaline phosphatase assay (SEAP kit).
The mark [5] stands for this setting: T47D cells, 24 h with test compound, alkaline phosphatase assay (SEAP kit), read-out: T47D IC50.

Take `C#C[C@]1(O)CCC2C3CCC4=CC(=O)CCC4=C3[C@@H](c3ccc(OC)cc3)OC[C@@]21C` (stereo partly shown) [Compound 12, 1-Ethynyl-1-hydroxy-10-(4-methoxy-phenyl)-12a-methyl-2,3,3a,3b,4,5,9,10,12,12a-decahydro-1H,8H-11-oxa-naphtho[2,1-e]azulen-7-one]: the IC50 – broadly, the point on the concentration scale where inhibition reaches its midpoint – is 118 nM in experiment [1] (Homo sapiens, A549, A549 cells) and more than 1000 nM in experiment [2] (setting [3]). As for `CN(C)c1ccc([C@H]2OC[C@@]3(C)C(CC[C@@]3(O)C#Cc3cc(F)cc(F)c3)C3CCC4=CC(=O)CCC4=C32)cc1` (stereo partly shown) [Compound 36, 1-(3,5-Difluoro-phenylethynyl)-10-(4-dimethylamino-phenyl)-1-hydroxy-12a-methyl-2,3,3a,3b,4,5,9,10,12,12a-decahydro-1H,8H-11-oxa-naphtho[2,1-e]azulen-7-one], the IC50 in experiment [2] (setting [3]) is 160 nM. Take `COc1ccc([C@H]2OC[C@@]3(C)C(CC[C@@]3(O)C#CC(F)(F)F)C3CCC4=CC(=O)CCC4=C32)cc1` (stereo partly shown) [Compound 19, 1-Hydroxy-10-(4-methoxy-phenyl)-12a-methyl-1-trifluoroprop-1-ynyl-2,3,3a,3b,4,5,9,10,12,12a-decahydro-1H,8H-11-oxa-naphtho[2,1-e]azulen-7-one]: the IC50 in experiment [1] (Homo sapiens, A549, A549 cells) was more than 3000 nM; in experiment [2] (setting [3]), more than 1000 nM. Taken in the same sequence, the figures for `C#C[C@]1(O)CCC2C3CCC4=CC(=O)CCC4=C3[C@H](c3ccc(OC)cc3)OC[C@@]21C` (stereo partly shown) [Compound 13, 1-Ethynyl-1-hydroxy-10-(4-methoxy-phenyl)-12a-methyl 2,3,3a,3b,4,5,9,10,12,12a-decahydro-1H,8H-11-oxa-naphtho[2,1-e]azulen-7-one] were 367 nM and more than 1000 nM.

Turning to `COc1ccc([C@H]2OC[C@@]3(C)C(CC[C@@]3(O)C#Cc3ccccc3)C3CCC4=CC(=O)CCC4=C32)cc1` (stereo in doubt) [Compound 23, 1-Hydroxy-10-(4-methoxy-phenyl)-12a-methyl-1-phenylethynyl-2,3,3a,3b,4,5,9,10,12,12a-decahydro-1H,8H-11-oxa-naphtho[2,1-e]azulen-7-one], the IC50 worked out at 237 nM in experiment [1] (A549 cells) and 260 nM in experiment [2] (setting [4]). `CN(C)c1ccc([C@H]2OC[C@@]3(C)C(CC[C@@]3(O)C#Cc3ccccc3)C3CCC4=CC(=O)CCC4=C32)cc1` (stereo partly shown) [Compound 31, 10-(4-Dimethylamino-phenyl)-1-hydroxy-12a-methyl-1-phenyl ethynyl-2,3,3a,3b,4,5,9,10,12,12a-decahydro-1H,8H-11-oxa-naphtho[2,1-e]azulen-7-one]: the IC50 in experiment [2] (setting [3]) was found to be 78 nM. As for `CSc1ccc([C@H]2OC[C@]3(C)C(=O)CCC3C3CCC4=CC(=O)CCC4=C32)cc1` (stereo partly shown) [Compound 25, 12a-Methyl-10-(4-methylsulfanyl-phenyl) 2,3,3a,3b,4,5,9,10,12,12a-decahydro-8H-11-oxa-naphtho[2,1-e]azulene-1,7-dione], the IC50 in experiment [1] (Homo sapiens, A549, A549 cells) is 1320 nM. Regarding `CC#C[C@]1(O)CCC2C3CCC4=CC(=O)CCC4=C3[C@H](c3ccc(OC)cc3)OC[C@@]21C` (stereo partly drawn) [Compound 15, 1-Hydroxy-10-α(4-methoxy-phenyl)-12a-methyl-1-prop-1-ynyl-2,3,3a,3b,4,5,9,10,12,12a-decahydro-1H,8H-11-oxa-naphtho[2,1-e]azulen-7-one], the IC50 in experiment [1] (Homo sapiens, A549, A549 cells) is 583 nM; in experiment [2] (setting [3]) it was more than 1000 nM. For `CN(C)c1ccc([C@H]2OC[C@]3(C)C(=O)CCC3C3CCC4=CC(=O)CCC4=C32)cc1` (stereo partly shown) [Compound 10, 10-(4-Dimethylamino-phenyl)-12a-methyl-2,3,3a,3b,4,5,9,10,12,12a-decahydro-8H-11-oxa-naphtho[2,1-e]azulene-1,7-dione], the IC50 is more than 3000 nM in experiment [1] (Homo sapiens, A549, A549 cells) and 1800 nM in experiment [2] (setting [3]).

On to `CSc1ccc([C@H]2OC[C@]3(C)C(C#Cc4ccccc4)=CCC3C3CCC4=CC(=O)CCC4=C32)cc1` (stereo partly shown) [Compound 11, 12a-Methyl-10-(4-methylsulfanyl-phenyl)-1-phenylethynyl 3a,3b,4,5,9,10,12,12a-octahydro-3H,8H-11-oxa-naphtho[2,1-e]azulen-7-one], for which the IC50 in experiment [1] (Homo sapiens, A549, A549 cells) is more than 3000 nM; in experiment [2] (setting [3]), more than 1000 nM. On to “10-(4-Dimethylamino-phenyl)-1-ethynyl-1-hydroxy-12a-methyl-2,3,3a,3b,4,5,9,10,12,12a-decahydro-1H,8H-11-oxa-naphtho[2,1-e]azulen-7-one [Compound 3]”, for which the IC50 in experiment [1] (A549 cells) was 133 nM; in experiment [2] (setting [5]) it was 7 nM. `COc1ccc([C@H]2OC[C@@]3(C)C(CC[C@@]3(O)C#Cc3ccc(C(F)(F)F)cc3)C3CCC4=CC(=O)CCC4=C32)cc1` (stereo partly shown) [Compound 21, 1-Hydroxy-10-(4-methoxy-phenyl)-12a-methyl-1-(4-trifluoromethylphenylethynyl)-2,3,3a,3b,4,5,9,10,12,12a-decahydro-1H,8H-11-oxa-naphtho[2,1-e]azulen-7-one]: the IC50 in experiment [1] (A549 cells) and in experiment [2] (setting [4]) was more than 1000 nM throughout. Take `CN(C)c1ccc([C@H]2OC[C@@]3(C)C(CC[C@@]3(O)C#Cc3ccccc3F)C3CCC4=CC(=O)CCC4=C32)cc1` (stereo partly shown) [Compound 32, 10-(4-Dimethylamino-phenyl)-1-(2-fluoro-phenylethynyl)-1-hydroxy-12a-methyl-2,3,3a,3b,4,5,9,10,12,12a-decahydro-1H,8H-11-oxa-naphtho[2,1-e]azulen-7-one]: the IC50 in experiment [2] (setting [3]) was found to be 48 nM. As for “10-(4-Dimethylamino-phenyl)-1-(4-fluoro-phenylethynyl)-1-hydroxy-12a-methyl-2,3,3a,3b,4,5,9,10,12,12a-decahydro-1H,8H-11-oxa-naphtho[2,1-e]azulen-7-one [Compound 35]”, the IC50 in experiment [2] (setting [5]) was determined as 17 nM.

With `COc1ccc([C@H]2OC[C@]3(C)C(=O)CCC3C3CCC4=CC(=O)CCC4=C32)cc1` (stereo partly shown) [Compound 28, 10-(4-Methoxy-phenyl)-12a-methyl-2,3,3a,3b,4,5,9,10,12,12a-decahydro-8H-11-oxa-naphtho[2,1-e]azulene-1,7-dione], the IC50 in experiment [1] (Homo sapiens, A549, A549 cells) was more than 3000 nM. Same read-out and setting: the same measure for `C=CC(=O)[C@]1(O)CCC2C3CCC4=CC(=O)CCC4=C3[C@@H](c3ccc(SC)cc3)OC[C@@]21C` (stereo partly shown) [Compound 26]: 2310 nM. Take “10-(4-Dimethylamino-phenyl)-1-(3-fluoro-phenylethynyl)-1-hydroxy-12a-methyl-2,3,3a,3b,4,5,9,10,12,12 a-decahydro-1H,8H-11-oxa-naphtho[2,1-e]azulen-7-one [Compound 34]”: in experiment [2] (setting [5]), the IC50 is 122 nM. The same measure, in the same setting: the same measure for `CN(C)c1ccc(C2OCC3(C)C(CCC3(O)C(F)(F)C(F)(F)F)C3CCC4=CC(=O)CCC4=C23)cc1` (stereo not shown) [Compound 37, 10-(4-Dimethylamino-phenyl)-1-hydroxy-12a-methyl-1-penta fluoroethyl 2,3,3a,3b4,5,9,10,12,12a-decahydro-1H,8H-11-oxa-naphtho[2,1-e]azulen-7-one]: 42 nM.

Take “1-Hydroxy-1-isopropenyl-10-(4-methanesulfonyl-phenyl)-12a-methyl-2,3,3a,3b,4,5,9,10,10,12,12a-decahydro-1H,8H-11-oxa-naphtho[2,1-e]azulen-7-one [Compound 30]”: the IC50 in experiment [1] (A549 cells) was more than 1000 nM. Same read-out and setting: the same measure for `CC#C[C@]1(O)CCC2C3CCC4=CC(=O)CCC4=C3[C@@H](c3ccc(OC)cc3)OC[C@@]21C` (stereo partly shown) [Compound 27]: 41.5 nM. For the compound `C=C1CCOC12CC[C@H]1[C@@H]3CCC4=CC(=O)CCC4=C3[C@@H](c3ccc(N(C)C)cc3)OC[C@@]12C` (stereo partly shown) [Compound 38], in experiment [2] (setting [3]), the IC50 was found to be 1.1 nM. For `COc1ccc([C@@H]2OC[C@]3(C)C(=O)CCC3C3CCC4=CC(=O)CCC4=C32)cc1` (stereo partly drawn) [Compound 29, 10-α-(4-Methoxy-phenyl)-12a-methyl-2,3,3a,3b,4,5,9,10,12,12a-decahydro-8H-11-oxa-naphtho[2,1-e]azulene-1,7-dione], the IC50 in experiment [1] (Homo sapiens, A549, A549 cells) was more than 3000 nM.

These data come from patent US7390831B2, “Tetracyclic steroid derivatives useful as progesterone receptor modulators” (Janssen Pharmaceutica N.V., priority 2006, dated 2008).
